Results on seven compounds are retold here after US4526989A, “1,4-Bis (substituted-amino)-5,8-dihydroxy-anthraquinones and leuco bases thereof” (priority 1979, dated 1985).

Like-named read-outs stand apart in the source and are kept apart here.

Assay [1] has as its system lymphocytic leukemia P388. The experiment in a line: Lymphocytic leukemia P388 test (intraperitoneal administration). Format: in vivo, DBA/2 mice. On the procedure: The animals used are DBA/2 mice all of one sex, weighing a minimum of 17 g. and all within a 3 gram weight range. There are 5 or 6 animals per test group. The tumor transplant is by intraperitoneal injection of 0.1 ml. of dilute ascitic fluid containing 10^6 cells of lymphocytic leukemia P388. The test compounds are administered intraperitoneally on days one, 5 and 9 (relative to tumor inoculation) at various doses. The animals are weighed and survivors are recorded on a regular basis for 30 days. The median survival time and the ratio of survival time for treated (T)/control (C) animals are calculated.

In assay [2] the test system is melanotic melanoma B16. The assay is described as follows: Melanotic Melanoma B16 test. Format: in vivo, C57BC/6 mice. As to conditions: days 1 through 9. On the procedure: The animals used are C57BC/6 mice, all of the same sex, weighing a minimum of 17 g. and all within a 3-g. weight range. There are normally 10 animals per test group. A one-gram portion of melanotic melanoma B16 tumor is homogenized in 10 ml. of cold balanced salt solution and a 0.5-ml. aliquot of the homogenate is implanted intraperitoneally into each of the test mice. The test compounds are administered intraperitoneally on days one through 9 (relative to tumor inoculation) at various doses. The animals are weighed and survivors are recorded on a regular basis for 60 days. The median survival time and the ratio of survival time for treated (T)/control (C) animals are calculated. […] The criterion for efficacy is T/C×100≥125%.

Where [3] appears, read: 3.1 mg./kg. i.p., days 1, 5 and 9.
Setting [4] is: 6.2 mg./kg. i.p., days 1, 5 and 9.
Setting [5] is: 12.5 mg./kg. i.p., days 1, 5 and 9.
The mark [6] stands for this setting: 25 mg./kg. i.p., days 1, 5 and 9.
Setting [7] is: 50 mg./kg. i.p., days 1, 5 and 9.
Where [8] appears, read: Mus musculus, P388, ip, 3.1 mg./kg. i.p., days 1, 5 and 9, efficacy ≥125%, read-out: T/C × 100.
Setting [9] is: Mus musculus, P388, ip, 6.2 mg./kg. i.p., days 1, 5 and 9, efficacy ≥125%, read-out: T/C × 100.
Setting [10] is: Mus musculus, P388, ip, 12.5 mg./kg. i.p., days 1, 5 and 9, efficacy ≥125%, read-out: T/C × 100.
The mark [11] stands for this setting: Mus musculus, P388, ip, 25 mg./kg. i.p., days 1, 5 and 9, efficacy ≥125%, read-out: T/C × 100.
The mark [12] stands for this setting: Mus musculus, P388, ip, 50 mg./kg. i.p., days 1, 5 and 9, efficacy ≥125%, read-out: T/C × 100.
Where [13] appears, read: 100 mg./kg. i.p., days 1, 5 and 9.
The mark [14] stands for this setting: 200 mg./kg. i.p., days 1, 5 and 9.
Where [15] appears, read: Mus musculus, P388, ip, 100 mg./kg. i.p., days 1, 5 and 9, efficacy ≥125%, read-out: T/C × 100.
[16] abbreviates: Mus musculus, P388, ip, 200 mg./kg. i.p., days 1, 5 and 9, efficacy ≥125%, read-out: T/C × 100.
The mark [17] stands for this setting: 0.78 mg./kg. i.p., days 1, 5 and 9.
The mark [18] stands for this setting: 1.56 mg./kg. i.p., days 1, 5 and 9.
The mark [19] stands for this setting: 6.25 mg./kg. i.p., days 1, 5 and 9.
Setting [20] is: Mus musculus, P388, ip, 0.78 mg./kg. i.p., days 1, 5 and 9, efficacy ≥125%, read-out: T/C × 100.
The mark [21] stands for this setting: Mus musculus, P388, ip, 6.25 mg./kg. i.p., days 1, 5 and 9, efficacy ≥125%, read-out: T/C × 100.
[22] abbreviates: Mus musculus, P388, ip, 1.56 mg./kg. i.p., days 1, 5 and 9, efficacy ≥125%, read-out: T/C × 100.

On to `CNCCNC1=C2C(=O)c3c(O)ccc(O)c3C(=O)C2=C(NCCNC)CC1` [Leuco-1,4-bis[2-(methylamino)ethylamino]-5,8-dihydroxyanthraquinone], for which the “Median Survival Time” value in assay [1] (1.5 mg./kg. i.p., days 1, 5 and 9) turned out to be 13.0 days; in assay [1] (setting [3]), 15.0 days; in assay [1] (setting [4]) it was 21.0 days; in assay [1] (setting [5]), 19.0 days; in assay [1] (setting [6]) it was 19.0 days; in assay [1] (setting [7]), 6.0 days. In addition, the “Median Survival Time” value in assay [2] (0.7 mg./kg. i.p.) was determined as 27.5 days; in assay [2] (1.5 mg./kg. i.p.), 36.0 days; in assay [2] (3 mg./kg. i.p.), 31.0 days; in assay [2] (6 mg./kg. i.p.) it was 32.5 days; in assay [2] (12 mg./kg. i.p.), 28.0 days. The response vs control in vivo at 1.5 mg/kg in assay [1] (Mus musculus, P388, ip, 1.5 mg./kg. i.p., days 1, 5 and 9, efficacy ≥125%, read-out: T/C × 100) was found to be 118%; in assay [2] (Mus musculus, ip, 1.5 mg./kg. i.p., efficacy ≥125%, read-out: T/C × 100) it was 225%. In addition, the response vs control in vivo at 3.1 mg/kg in assay [1] (setting [8]) is 136%. In addition, the response vs control in vivo at 6.2 mg/kg in assay [1] (setting [9]) was 191%. For the same compound, the response vs control in vivo at 12.5 mg/kg in assay [1] (setting [10]) turned out to be 173%. Besides, the response vs control in vivo at 25 mg/kg in assay [1] (setting [11]) came out at 173%. Besides, the response vs control in vivo at 50 mg/kg in assay [1] (setting [12]) is 55%. Further, the response vs control in vivo at 0.7 mg/kg in assay [2] (Mus musculus, ip, 0.7 mg./kg. i.p., efficacy ≥125%, read-out: T/C × 100) was 172%. Also, the response vs control in vivo at 3 mg/kg in assay [2] (Mus musculus, ip, 3 mg./kg. i.p., efficacy ≥125%, read-out: T/C × 100) was 194%. Besides, the response vs control in vivo at 6 mg/kg in assay [2] (Mus musculus, ip, 6 mg./kg. i.p., efficacy ≥125%, read-out: T/C × 100) is 203%. The response vs control in vivo at 12 mg/kg in assay [2] (Mus musculus, ip, 12 mg./kg. i.p., efficacy ≥125%, read-out: T/C × 100) was 175%.

Take `O=C1C2=C(NCCN(CCO)CCO)CCC(NCCN(CCO)CCO)=C2C(=O)c2c(O)ccc(O)c21` [Leuco-1,4-bis[2-[di(β-hydroxyethyl)amino]ethylamino]-5,8-dihydroxyanthraquinone]: the “Median Survival Time” value is 12.0 days in assay [1] (setting [4]); 13.5 days in assay [1] (setting [5]); 15.0 days in assay [1] (setting [6]); 16.0 days in assay [1] (setting [7]); 17.0 days in assay [1] (setting [13]); 19.0 days in assay [1] (setting [14]). In assay [1] (setting [9]), the response vs control in vivo at 6.2 mg/kg was 120%. The response vs control in vivo at 12.5 mg/kg in assay [1] (setting [10]) worked out at 135%. The response vs control in vivo at 25 mg/kg in assay [1] (setting [11]) is 150%. For the same compound, in assay [1] (setting [12]), the response vs control in vivo at 50 mg/kg worked out at 160%. Moreover, in assay [1] (setting [15]), the response vs control in vivo at 100 mg/kg was 170%. Moreover, the response vs control in vivo at 200 mg/kg in assay [1] (setting [16]) worked out at 190%.

Take `Cl.Cl.O=C1c2c(O)ccc(O)c2C(=O)c2c(NCCNCCCO)ccc(NCCNCCCO)c21` [1,4-Bis[2-(3-hydroxy-1-propylamino)ethylamino]-5,8-dihydroxyanthraquinone dihydrochloride]: the “Median Survival Time” value in assay [1] (setting [17]) is 21.5 days; in assay [1] (setting [18]), 22.0 days; in assay [1] (setting [3]) it was 25.0 days; in assay [1] (setting [19]), 26.0 days; in assay [1] (setting [5]), over 30.0 days; in assay [1] (setting [6]) it was 8.5 days. The response vs control in vivo at 1.56 mg/kg in assay [1] (Mus musculus, P388, ip, read-out: T/C × 100) came to 200%. For the same compound, the response vs control in vivo at 0.78 mg/kg in assay [1] (setting [20]) stood at 195%. The response vs control in vivo at 3.1 mg/kg in assay [1] (setting [8]) came out at 227%. Further, the response vs control in vivo at 6.25 mg/kg in assay [1] (setting [21]) amounted to 236%. Also, in assay [1] (setting [10]), the response vs control in vivo at 12.5 mg/kg was over 273%. The response vs control in vivo at 25 mg/kg in assay [1] (setting [11]) is 77%.

With `CC(O)CNCCNc1ccc(NCCNCC(C)O)c2c1C(=O)c1c(O)ccc(O)c1C2=O.Cl.Cl` (stereo not shown) [1,4-Bis[2-(2-hydroxy-1-propylamino)ethylamino]-5,8-dihydroxyanthraquinone dihydrochloride], the “Median Survival Time” value in assay [1] (0.39 mg./kg. i.p., days 1, 5 and 9) amounted to 17.5 days; in assay [1] (setting [17]) it was 19.0 days; in assay [1] (setting [18]), 19.0 days; in assay [1] (setting [3]) it was 22.0 days; in assay [1] (setting [4]) it was 23.0 days; in assay [1] (setting [5]) it was 24.0 days. In addition, the “Median Survival Time” value in assay [1] (setting [6]) turned out to be 12.0 days. Also, the response vs control in vivo at 0.39 mg/kg in assay [1] (Mus musculus, P388, ip, 0.39 mg./kg. i.p., days 1, 5 and 9, efficacy ≥125%, read-out: T/C × 100) amounted to 175%. For the same compound, the response vs control in vivo at 0.78 mg/kg in assay [1] (setting [20]) is 190%. In addition, in assay [1] (setting [22]), the response vs control in vivo at 1.56 mg/kg was determined as 190%. Further, in assay [1] (setting [8]), the response vs control in vivo at 3.1 mg/kg was determined as 220%. Moreover, the response vs control in vivo at 6.2 mg/kg in assay [1] (setting [9]) is 230%. Moreover, the response vs control in vivo at 12.5 mg/kg in assay [1] (setting [10]) was found to be 240%. Moreover, the response vs control in vivo at 25 mg/kg in assay [1] (setting [11]) is 120%.

Regarding `CC(O)CNCCNC1=C2C(=O)c3c(O)ccc(O)c3C(=O)C2=C(NCCNCC(C)O)CC1` (stereo not shown) [Leuco-1,4-bis[2-(2-hydroxy-1-propylamino)ethylamino]-5,8-dihydroxyanthraquinone], the “Median Survival Time” value turned out to be 20.0 days in assay [1] (setting [19]); 21.5 days in assay [1] (setting [5]); 20.5 days in assay [1] (setting [6]); 24.0 days in assay [1] (setting [7]); 26.5 days in assay [1] (setting [13]); 9.0 days in assay [1] (setting [14]). The response vs control in vivo at 6.25 mg/kg in assay [1] (setting [21]) amounted to 182%. In addition, the response vs control in vivo at 12.5 mg/kg in assay [1] (setting [10]) turned out to be 195%. For the same compound, the response vs control in vivo at 25 mg/kg in assay [1] (setting [11]) was 186%. Also, the response vs control in vivo at 50 mg/kg in assay [1] (setting [12]) was 218%. Further, the response vs control in vivo at 100 mg/kg in assay [1] (setting [15]) was 241%. The response vs control in vivo at 200 mg/kg in assay [1] (setting [16]) was 82%.

For `Cl.Cl.O=C1c2c(O)ccc(O)c2C(=O)c2c(NCCN(CCO)CCO)ccc(NCCN(CCO)CCO)c21` [1,4-Bis[2-[di(β-hydroxyethyl)amino]ethylamino]-5,8-dihydroxyanthraquinone dihydrochloride], the “Median Survival Time” value worked out at 14.5 days in assay [1] (setting [17]); 16.0 days in assay [1] (setting [18]); 19.0 days in assay [1] (setting [3]); 18.5 days in assay [1] (setting [4]); 18.5 days in assay [1] (setting [5]); 21.5 days in assay [1] (setting [6]). Moreover, the “Median Survival Time” value is 20.5 days in assay [1] (setting [7]), 22.0 days in assay [1] (setting [13]) and over 30.0 days in assay [1] (setting [14]). Also, the response vs control in vivo at 0.78 mg/kg in assay [1] (setting [20]) came out at 161%. Besides, the response vs control in vivo at 1.56 mg/kg in assay [1] (setting [22]) worked out at 178%. For the same compound, in assay [1] (setting [8]), the response vs control in vivo at 3.1 mg/kg came to 211%. Also, in assay [1] (setting [9]), the response vs control in vivo at 6.2 mg/kg worked out at 206%. In addition, the response vs control in vivo at 12.5 mg/kg in assay [1] (setting [10]) stood at 206%. Besides, in assay [1] (setting [11]), the response vs control in vivo at 25 mg/kg was 239%. The response vs control in vivo at 50 mg/kg in assay [1] (setting [12]) turned out to be 228%. The response vs control in vivo at 100 mg/kg in assay [1] (setting [15]) was 244%. In addition, the response vs control in vivo at 200 mg/kg in assay [1] (setting [16]) is over 333%.

As for `O=C1c2c(O)ccc(O)c2C(=O)c2c(NCCN3CCOCC3)ccc(NCCN3CCOCC3)c21` [1,4-Bis(2-morpholinoethylamino)-5,8-dihydroxyanthraquinone], the “Median Survival Time” value in assay [1] (setting [13]) was determined as 12.0 days; in assay [1] (setting [14]), 14.0 days. Besides, the response vs control in vivo at 100 mg/kg in assay [1] (setting [15]) was found to be 126%. Besides, the response vs control in vivo at 200 mg/kg in assay [1] (setting [16]) was found to be 147%.
